Reference: patent US12498382B2, “Biomarkers for vitiligo” (INCYTE CORPORATION, priority 2019, dated 2025)

System: HaCaT cells
Assay: Concentrations of inflammatory mediators produced by HaCaT cells stimulated with TNFα and IFNγ in presence/absence of JAK inhibitors (ProCarta)
Format: cell-based, human
Protocol: After 48 hours, cell culture media was removed from 24 well plates and replaced with 250 uL of media containing serial diluted drug, then incubated for 15 minutes at 37° C./5% CO2. […] The final concentration of Recombinant Human Interferon gamma and Recombinant Human Tumor Necrosis Factor alpha was 25 ng/mL of each cytokine. Cytokine stimulation added to wells containing drug brought the final concentrations for each drug treatment to 25 nM, 50 nM, 100 nM, and 200 nM. Treated plates were mixed by gentle agitation for 30 seconds then incubated for 24 hours at 37° C./5% CO2. At the end of the 24 hour incubation media was immediately removed from each plate.
Media was incubated with antibody conjugated beads designed to bind to the epitopes of specific target proteins and identify the bound protein through the bead's distinctive spectral pattern. Biotinylated detection antibodies, designed to bind to different epitopes of the same target proteins, and Streptavidin-PE are added to assay plates to quantify the amount of the target proteins. Assay plates were read on the Luminex 200 and data were expressed as Net Median Fluorescence Intensity. […] The concentration of each protein was extrapolated from the antigen standard curve and concentrations were expressed as pg/mL (Table 15).

[1] = TNFα+IFNγ 25 ng/mL each, drug conc. 3rd of 4 rows (cell not shown; prob. 100 nM)
[2] = TNFα+IFNγ 25 ng/mL each, drug conc. 4th of 4 rows (cell not shown; prob. 200 nM)
[3] = drug present, concentration not given

SMILES: C[C@@H](O)c1nc2cnc3ccsc3c2n1[C@H]1CC[C@H](CC#N)OC1 [Cpd D, ((2R,5S)-5-{2-[(1R)-1-hydroxyethyl]-1H-imidazo[4,5-d]thieno[3,2-b]pyridin-1-yl}tetrahydro-2H-pyran-2-yl)acetonitrile]
- IL21 concentration [1]: 2.64 ± 0.24 pg/mL
- IL22 concentration [1]: 8.21 ± 0.69 pg/mL
- IL23 concentration [1]: 7.43 ± 0 pg/mL
- IL27 concentration [1]: 5.92 ± 0.88 pg/mL
- IL31 concentration [1]: 4.14 ± 0.48 pg/mL
- IP-10/CXCL10 concentration [1]: 4100.26 ± 502.48 pg/mL
- LIF concentration [1]: 70.02 ± 3.89 pg/mL
- MCP1 concentration [1]: 15200 ± 0 pg/mL
- MIP1 alpha concentration [1]: 96.22 ± 3.58 pg/mL
- MIP1 beta concentration [1]: 317.95 ± 8.1 pg/mL
- PDGF-BB concentration [1]: 4.71 ± 0.23 pg/mL
- PIGF-1 concentration [1]: 59.49 ± 3.52 pg/mL
- RANTES concentration [1]: 241.39 ± 22.79 pg/mL
- SCF concentration [1]: 4.29 ± 0.29 pg/mL
- SDF-1 alpha concentration [1]: 3563.68 ± 157.35 pg/mL
- TNF alpha concentration [1]: 10525.46 ± 1077.11 pg/mL
- TNF beta concentration [1]: 4.47 ± 0.37 pg/mL
- VEGF-A concentration [1]: 1346.72 ± 67.56 pg/mL
- VEGF-D concentration [1]: 9.64 ± 0.91 pg/mL
- IFN gamma concentration [2]: 26972.77 ± 4164.13 pg/mL
- IL1RA concentration [2]: 5450.17 ± 388.11 pg/mL
- IL1 alpha concentration [2]: 6.3 ± 0.35 pg/mL
- IL1 beta concentration [2]: 8.81 ± 0.35 pg/mL
- IL2 concentration [2]: 31.88 ± 1.61 pg/mL
- IL4 concentration [2]: 8.19 ± 1.39 pg/mL
- IL5 concentration [2]: 25.61 ± 1.98 pg/mL
- IL6 concentration [2]: 646.2 ± 32.46 pg/mL
- IL7 concentration [2]: 2.14 ± 0.12 pg/mL
- IL8 concentration [2]: 2893.51 ± 190.51 pg/mL
- IL9 concentration [2]: 4.44 ± 0.54 pg/mL
- IL10 concentration [2]: 0.84 ± 0.08 pg/mL
- IL12p70 concentration [2]: 1.7 ± 0.2 pg/mL
- IL13 concentration [2]: 2.52 ± 0.42 pg/mL
- IL15 concentration [2]: 3.37 ± 0.8 pg/mL
- IL17A concentration [2]: 4.04 ± 0.49 pg/mL
- IL18 concentration [2]: 155.77 ± 4.15 pg/mL
- IL21 concentration [2]: 2.84 ± 0.04 pg/mL
- IL22 concentration [2]: 8.39 ± 0.51 pg/mL
- IL23 concentration [2]: 7.43 ± 0 pg/mL
- IL27 concentration [2]: 8.3 ± 1.2 pg/mL
- IL31 concentration [2]: 3.05 ± 0.38 pg/mL
- IP-10/CXCL10 concentration [2]: 4407.56 ± 645.63 pg/mL
- LIF concentration [2]: 67.62 ± 3.58 pg/mL
- MCP1 concentration [2]: 18512.1 ± 3312.1 pg/mL
- MIP1 alpha concentration [2]: 88.49 ± 5.06 pg/mL
- MIP1 beta concentration [2]: 316.74 ± 9.29 pg/mL
- PDGF-BB concentration [2]: 4.75 ± 0.16 pg/mL
- PIGF-1 concentration [2]: 55.63 ± 3.23 pg/mL
- RANTES concentration [2]: 238.51 ± 23.12 pg/mL
- SCF concentration [2]: 4.07 ± 0.21 pg/mL
- SDF-1 alpha concentration [2]: 3464.97 ± 155.2 pg/mL
- TNF alpha concentration [2]: 9777.73 ± 966.87 pg/mL
- TNF beta concentration [2]: 4.96 ± 0.56 pg/mL
- VEGF-A concentration [2]: 1256.89 ± 60.57 pg/mL
- VEGF-D concentration [2]: 8.03 ± 0.93 pg/mL
- IL1 alpha concentration [3]: 0.26 ± 0.05 pg/mL
- IL1 beta concentration [3]: 0.98 ± 0.12 pg/mL
- IL2 concentration [3]: 2.4 ± 0.09 pg/mL
- IL4 concentration [3]: 5.34 ± 0.89 pg/mL
- IL5 concentration [3]: 2.88 ± 0.36 pg/mL
- IL6 concentration [3]: 28.84 ± 1.89 pg/mL
- IL7 concentration [3]: 3.44 ± 0.16 pg/mL
- IL8 concentration [3]: 257.62 ± 7.07 pg/mL
- IL9 concentration [3]: 3.98 ± 0.36 pg/mL
- IL10 concentration [3]: 0.43 ± 0.11 pg/mL
- IL12p70 concentration [3]: 2.15 ± 0.26 pg/mL
- IL13 concentration [3]: 1.26 ± 0.15 pg/mL
- IL15 concentration [3]: 3.2 ± 0.71 pg/mL
- IL17A concentration [3]: 1.22 ± 0.2 pg/mL
- IL18 concentration [3]: 6.54 ± 0.37 pg/mL
- IL21 concentration [3]: 2.5 ± 0.3 pg/mL
- IL22 concentration [3]: 8.08 ± 0.82 pg/mL
- IL23 concentration [3]: 6.43 ± 1.28 pg/mL
- IL27 concentration [3]: 11.9 ± 2.31 pg/mL
- IL31 concentration [3]: 3.7 ± 0.06 pg/mL
- IP-10/CXCL10 concentration [3]: 20.23 ± 0.48 pg/mL
- LIF concentration [3]: 22.66 ± 0.82 pg/mL
- MCP1 concentration [3]: 1306.83 ± 54.65 pg/mL
- MIP1 alpha concentration [3]: 2.75 ± 0.26 pg/mL
- MIP1 beta concentration [3]: 113.08 ± 4.82 pg/mL
- PDGF-BB concentration [3]: 1.93 ± 0.18 pg/mL
- PIGF-1 concentration [3]: 20.55 ± 1.16 pg/mL
- RANTES concentration [3]: 10.17 ± 0.54 pg/mL
- SCF concentration [3]: 1.91 ± 0.15 pg/mL
- SDF-1 alpha concentration [3]: 990.69 ± 48.87 pg/mL
- TNF alpha concentration [3]: 2.41 ± 0.7 pg/mL
- TNF beta concentration [3]: 4.42 ± 0.57 pg/mL
- VEGF-A concentration [3]: 598.11 ± 16.67 pg/mL
- VEGF-D concentration [3]: 3.55 ± 0.66 pg/mL
